The source of these data is patent US20250339399A1, “SUPRAMOLECULAR SELF-ASSEMBLY SYSTEM” (Beijing Creatron Institute of Pharmaceutical Research Co., …, priority 2022, published 2025).

Like-named read-outs stand apart in the source and are kept apart here.

For data set [1] the following is noted: cited from earlier work.
Data set [2] in a line: Binary supramolecular self-assembly systems of polymer and target: guest concentration over incubation time (Comparative Example 2). It counts as physicochemical. On the procedure:
Experiments were conducted according to the steps in Comparative Example 1, and quantitative analysis was carried out using the analytical method for each target to investigate the regulation ability […] stacking.

A short description of data set [3]: Guest molecule concentration after incubation in initial medium without polymer (Comparative Example 1). The note with it: 37° C., 0.05% SDS in pH 6.8 phosphate buffer. It counts as physicochemical. On the procedure:
pH 2.0 hydrochloric acid, pH 4.5 acetate, and pH 6.5, pH 6.8, or pH 7.4 phosphate buffer solutions were prepared. The selection of each initial medium followed the principle that the solubility in the initial medium of the selected targets (or active ingredients) should low enough, but should meet the detection sensitivity and accuracy requirements of the corresponding analytical methods. Each buffer as initial media was placed in a 50 ml test tube with a stopper, shaken in a constant temperature air shaker at 37° C.±0.5° C., with an amplitude of 200 rpm, and incubated for 1 hour. […] Samples were taken at 0.5 h, 3 h and 6 h after incubation, centrifuged at 37° C., 13000 rpm for 5 minutes, and the supernatant was diluted at least 10 times with the mobile phase under the target analyte analytical method, filtered, the initial filtrate was discarded, and the continued filtrate was used as the test solution for injection analysis. The corresponding HPLC method under each target object item in Table 8 was used to determine the content of each target substance. When the solubility of the target in the initial medium is below the quantitative limit of the analytical method, a small amount of surfactant, such as sodium dodecyl sulfate (SDS), Tween20, or Tween80, can be added appropriately.
The above targets were incubated at 37° C.±0.5° C. for different time in an initial medium without any polymer. Each solid target formed by molecular stacking was removed by centrifugation, and the supernatant was analyzed using the HPLC method under each target item (see Table 8). The theoretical addition concentration of each target when its supramolecular self-assembly system was built was determined by its maximum dose in clinical use.

Where [4] appears, read: binary system with 0.5% polymer 101, incubation 0.5 h.
The mark [5] stands for this setting: binary system with 0.5% polymer 101, incubation 3 h.
Where [6] appears, read: binary system with 0.5% polymer 101, incubation 6 h.
The mark [7] stands for this setting: binary system with 0.5% polymer 102, incubation 0.5 h.
[8] abbreviates: binary system with 0.5% polymer 102, incubation 3 h.
[9] abbreviates: binary system with 0.5% polymer 102, incubation 6 h.
Setting [10] is: binary system with 0.5% polymer 103, incubation 0.5 h.
Setting [11] is: binary system with 0.5% polymer 103, incubation 3 h.
Where [12] appears, read: binary system with 0.5% polymer 103, incubation 6 h.
Where [13] appears, read: binary system with 0.5% polymer 106, incubation 0.5 h.
The mark [14] stands for this setting: binary system with 0.5% polymer 106, incubation 3 h.
Setting [15] is: binary system with 0.5% polymer 106, incubation 6 h.
The mark [16] stands for this setting: binary system with 0.5% polymer 107, incubation 0.5 h.
Setting [17] is: binary system with 0.5% polymer 107, incubation 3 h.
Where [18] appears, read: binary system with 0.5% polymer 107, incubation 6 h.
Where [19] appears, read: Cannabidiol derivatives, Table 30 (chemical structures).
Setting [20] is: prost derivatives, Table 31 (relevant information).

With `O=C1[C@@H]2[C@H]3CC[C@H](C3)[C@@H]2C(=O)N1C[C@@H]1CCCC[C@H]1CN1CCN(c2nsc3ccccc23)CC1` [Lurasidone, lurasidone], the “LogD7.4 or Log P” value in data set [1] is given as 3.43. Also, the “Concentration of the target in the solution measured after different incubation time” value (from here on “Concentration … after different incubation time”) in data set [2] (setting [4]) stood at 13200 ng/mL; in data set [2] (setting [5]), 13500 ng/mL; in data set [2] (setting [6]) it was 9400 ng/mL; in data set [2] (setting [7]) it was 15300 ng/mL; in data set [2] (setting [8]) it was 12700 ng/mL; in data set [2] (setting [9]), 13400 ng/mL. For the same compound, the “Concentration … after different incubation time” value in data set [2] (setting [10]) is 7000 ng/mL; in data set [2] (setting [11]) it was 5200 ng/mL; in data set [2] (setting [12]), 4000 ng/mL; in data set [2] (setting [13]), 4100 ng/mL; in data set [2] (setting [14]) it was 3100 ng/mL; in data set [2] (setting [15]), 1800 ng/mL. For the same compound, the figures for the “Concentration … after different incubation time” value in data set [2] (setting [16]), in data set [2] (setting [17]) and in data set [2] (setting [18]) were 3200 ng/mL, 2400 ng/mL and 1700 ng/mL, respectively.

As for `CCC(C)n1ncn(-c2ccc(N3CCN(c4ccc(OCC5COC(Cn6cncn6)(c6ccc(Cl)cc6Cl)O5)cc4)CC3)cc2)c1=O` (centres unmarked) [Itraconazole, itraconazole], the “LogD7.4 or Log P” value in data set [1] was 7.31. Moreover, the “Concentration … after different incubation time” value in data set [2] (setting [4]) worked out at 47900 ng/mL; in data set [2] (setting [5]), 4800 ng/mL; in data set [2] (setting [6]), 3000 ng/mL; in data set [2] (setting [7]) it was 69700 ng/mL; in data set [2] (setting [8]), 34500 ng/mL; in data set [2] (setting [9]), 24700 ng/mL. For the same compound, the “Concentration … after different incubation time” value in data set [2] (setting [10]) was 14100 ng/mL; in data set [2] (setting [11]) it was 8600 ng/mL; in data set [2] (setting [12]), 1900 ng/mL; in data set [2] (binary system with 0.5% polymer 104, incubation 0.5 h), 31500 ng/mL; in data set [2] (binary system with 0.5% polymer 104, incubation 3 h) it was 7100 ng/mL; in data set [2] (binary system with 0.5% polymer 104, incubation 6 h), 3100 ng/mL. Besides, the “Concentration … after different incubation time” value in data set [2] (setting [13]) is 43300 ng/mL; in data set [2] (setting [14]) it was 8300 ng/mL; in data set [2] (setting [15]) it was 6400 ng/mL; in data set [2] (setting [16]), 13500 ng/mL; in data set [2] (setting [17]), 1700 ng/mL; in data set [2] (setting [18]), 1200 ng/mL. The results for the “Concentration of guest molecule measured after different incubated time” value in data set [3] (0.5 h), in data set [3] (3 h) and in data set [3] (6 h) were 10700 ng/mL, 2900 ng/mL and 2700 ng/mL, respectively.

Turning to `C=C(C)[C@@H]1CCC(C)=C[C@H]1c1c(O)cc(CCCC(=O)O)cc1O` [compound 36, (4-((1′R,2′R)-2,6-dihydroxy-5′-methyl-2′-(prop-1-en-2-yl)-1′,2′,3′,4′-tetrahydro-[1,1′-biphenyl]-4-yl)butyric acid)], in data set [1] (setting [19]), the “Log P” value is listed as “Log P = 4.59 H-D:3,H-R = 4”.

For `C=C(C)[C@@H]1CCC(CO)=C[C@H]1c1c(O)cc(CCCCC)cc1O` [compound 11, ((1′R,2′R)-5′-(hydroxymethyl)-4-pentyl-2′-(prop-1-en-2-yl)-1′,2′,3′,4′-tetrahydro-[1,1′-biphenyl]-2,6-diol)], the “Log P” value in data set [1] (setting [19]) is “Log P = 5.04 H-D:3,H-R = 3”.

Turning to `CCCCCc1cc(O)c([C@H]2C=C(CO)CC[C@H]2C(C)C)c(O)c1` [compound 23, ((1′R,2′S)-5′-(hydroxymethyl)-2′-isopropyl-4-pentyl-1′,2′,3′,4′-tetrahydro-[1,1′-biphenyl]-2,6-diol)], in data set [1] (setting [19]), the “Log P” value is reported as “Log P = 5.39 H-D:3,H-R = 3”.

For `COC(=O)[C@H](c1ccccc1Cl)N1CCc2sccc2C1` [Clopidogrel, clopidogrel], in data set [1], the “LogD7.4 or Log P” value was 4.11. Moreover, the “Concentration … after different incubation time” value worked out at 415100 ng/mL in data set [2] (setting [4]); 421500 ng/mL in data set [2] (setting [5]); 361700 ng/mL in data set [2] (setting [6]); 29100 ng/mL in data set [2] (setting [7]); 28500 ng/mL in data set [2] (setting [8]); 26100 ng/mL in data set [2] (setting [9]). For the same compound, the “Concentration … after different incubation time” value in data set [2] (setting [10]) came to 69100 ng/mL; in data set [2] (setting [11]), 69600 ng/mL; in data set [2] (setting [12]), 64500 ng/mL; in data set [2] (setting [13]) it was 37000 ng/mL; in data set [2] (setting [14]) it was 39300 ng/mL; in data set [2] (setting [15]), 39500 ng/mL. In addition, the “Concentration … after different incubation time” value amounted to 57000 ng/mL in data set [2] (setting [16]); 37800 ng/mL in data set [2] (setting [17]); 36500 ng/mL in data set [2] (setting [18]); 64700 ng/mL in data set [2] (binary system with 0.5% polymer 110, incubation 0.5 h); 69300 ng/mL in data set [2] (binary system with 0.5% polymer 110, incubation 3 h); 64400 ng/mL in data set [2] (binary system with 0.5% polymer 110, incubation 6 h).

With `O=C(O)CCC/C=C\C[C@@H]1[C@@H](/C=C/[C@@H](O)COc2cccc(C(F)(F)F)c2)[C@H](O)C[C@@H]1O` [Travoprost acid, travoprost acid], in data set [1] (setting [20]), the “Log P” value was “Log P:2.92 D-H: 4 R-H: 6”.

Take `CCCCC[C@H](O)/C=C/[C@H]1[C@H](O)CC(=O)[C@@H]1CCCCCCC(=O)O` [Alprostadil, alprostadil]: the “Log P” value in data set [1] (setting [20]) is recorded as “Log P 3.58 H,3 R-H 5”.
